# From patent US7351744B2, “Naphthalene derivatives as termite repellents and toxicants” (Board of Supervisors of Louisiana State University and …, priority 2003, dated 2008)
# What was measured:
# [1] = test system: C. formosanus workers and soldiers; experiment: Treated wood slices as sole food source; type: in vivo, Coptotermes formosanus; conditions: colonies C and WB combined
# Procedure: To assay the effect of 2′-acetonaphthone on termites when added to a sole food source, acute and cumulative toxicities of 2′-acetonaphthone-treated filter paper (Whatman #2) and balsa wood (Ochroma lagopus Swartz) slices (2.3 cm×4.0 cm) were evaluated. Seven concentrations (0, 1, 10, 50, 100, 500, and 1000 mg/l) were prepared in 100 ml ethanol. Six filter papers and six wood slices were soaked in each concentration for 4 h; control filter papers and wood slices were soaked only in ethanol. After treatment, the food sources were kept overnight at ambient conditions for solvent evaporation. Eighty-four plastic containers (5.5 cm diameter×3.7 cm height) were provided with 22 g of wetted sand (20 g sand (fine blasting sand #4, Cement Products Inc., Baton Rouge, La.) mixed with 2 ml DDH2O). Then either a filter paper or a wood slice was separately placed to fit on the surface of the wetted sand and wetted with DDH2O (250 μl). Into each container, fifty workers and 20 soldiers were placed on the surface of the filter paper or wood slice. For each concentration and food sourse, three replicates received termites from colony C, and three replicates received termites from colony WB. The containers were covered and incubated for 10 days at 27.4° C. and 70% RH. Containers were monitored everytwo days to ensure suitable moisture. On days 1, 5 and 10, the number of living workers and soldiers were counted. An average percent survival was calculated for each treatment. (See Tables 2 and 3).
# [2] = Longevity and volatility of the eleven chemicals; type: physicochemical; conditions: among the eleven chemicals tested
# C. formosanus workers [3] = experiment: Treated sand when untreated sand is an alternative; type: in vivo, Coptotermes formosanus; conditions: for Survival (mean % ± SE) day 12: Colony WB; for Survival (mean % ± SE) day 12 / Survival (% ± SE) day 12: treated and untreated sand; for Survival (% ± SE) day 12: Colony E
# Procedure: To further test the repellency of 2′-acetonaphthone, the three-chambered transparent plastic containers described in Example 5 were used. Sand was treated, allowed to dry from the solvent, and wetted with DDH2O as described in Example 5. Treated sand was placed in one of the side chambers, and the other side chamber received an equal amount of untreated sand. The concentrations of 2′-acetonaphthone used were 4.16, 8.33, 16.67, 33.33 and 66.67 mg/kg sand. Each concentration and the control had five replicate containers. Weighed balsa wood slices (0.159 cm×3.5 cm×6.0 cm each) were placed on the surface of both treated and untreated sand, and were wetted with 1 ml of DDH2O. Termites (200 workers and 20 soldiers) from colony WB were released in the middle chamber. On days 2, 3, 4 and 7, the bottom of each container was scanned, and tunnel areas measured as above. On day 12, the number of living termites in each container was recorded. The wood slices were then cleaned, dried and re-weighed to calculate food consumption.
# The above experiment was repeated with new concentrations of 2′-acetonaphthone: 8.75, 17.5, 35, 70 and 140 mg/kg sand. Termites from colony E were tested, and the food source was changed to filter paper. Tunnels were scanned and measured on days 2, 5, 8 and 12. The data were analyzed as described in Example 5, and paired t-tests were used to compare tunneling and feeding activities between treated and untreated sides.
# C. formosanus workers [4] = experiment: Repellency, choice of treated and untreated filter paper in three-chambered containers; type: in vivo, Coptotermes formosanus; conditions: preliminary study; 23 μg/cm^2
compound,measurement,setting,value
CC(=O)c1ccc2ccccc2c1 [2′-acetonaphthone],Percent survival,"[1]; wood slices 1 mg/l, Day 1, Soldier",93.33 ± 1.67 a %
same,Percent survival,"[1]; wood slices 1 mg/l, Day 1, Worker",85.0 ± 5.29 a %
same,Percent survival,"[1]; wood slices 1 mg/l, Day 5, Soldier",60.0 ± 13.54 a %
same,Percent survival,"[1]; wood slices 1 mg/l, Day 5, Worker",55.33 ± 12.87 a %
same,Percent survival,"[1]; wood slices 1 mg/l, Day 10, Soldier",47.50 ± 11.61 a %
same,Percent survival,"[1]; wood slices 1 mg/l, Day 10, Worker",52.67 ± 12.55 a %
same,Percent survival,"[1]; wood slices 10 mg/l, Day 1, Soldier",86.67 ± 4.41 a %
same,Percent survival,"[1]; wood slices 10 mg/l, Day 1, Worker",83.33 ± 5.03 a %
same,Percent survival,"[1]; wood slices 10 mg/l, Day 5, Soldier",54.17 ± 11.14 a %
same,Percent survival,"[1]; wood slices 10 mg/l, Day 5, Worker",63.67 ± 11.13 a %
same,Percent survival,"[1]; wood slices 10 mg/l, Day 10, Soldier",46.67 ± 12.36 a %
same,Percent survival,"[1]; wood slices 10 mg/l, Day 10, Worker",50.67 ± 8.79 a %
same,Percent survival,"[1]; wood slices 50 mg/l, Day 1, Soldier",85.0 ± 5.0 a %
same,Percent survival,"[1]; wood slices 50 mg/l, Day 1, Worker",86.67 ± 5.26 a %
same,Percent survival,"[1]; wood slices 50 mg/l, Day 5, Soldier",48.33 ± 10.38 a %
same,Percent survival,"[1]; wood slices 50 mg/l, Day 5, Worker",65.0 ± 13.51 a %
same,Percent survival,"[1]; wood slices 50 mg/l, Day 10, Soldier",39.17 ± 8.41 a %
same,Percent survival,"[1]; wood slices 50 mg/l, Day 10, Worker",49.67 ± 10.23 a %
same,Percent survival,"[1]; wood slices 100 mg/l, Day 1, Soldier",90.0 ± 2.89 a %
same,Percent survival,"[1]; wood slices 100 mg/l, Day 1, Worker",88.67 ± 3.33 a %
same,Percent survival,"[1]; wood slices 100 mg/l, Day 5, Soldier",55.83 ± 11.94 a %
same,Percent survival,"[1]; wood slices 100 mg/l, Day 5, Worker",56.67 ± 12.15 a %
same,Percent survival,"[1]; wood slices 100 mg/l, Day 10, Soldier",45.0 ± 9.58 a %
same,Percent survival,"[1]; wood slices 100 mg/l, Day 10, Worker",47.67 ± 10.97 a %
same,Percent survival,"[1]; wood slices 500 mg/l, Day 1, Soldier",80.83 ± 10.44 a %
same,Percent survival,"[1]; wood slices 500 mg/l, Day 1, Worker",84.67 ± 2.41 a %
same,Percent survival,"[1]; wood slices 500 mg/l, Day 5, Soldier",17.50 ± 7.61 b %
same,Percent survival,"[1]; wood slices 500 mg/l, Day 5, Worker",54.33 ± 8.01 a %
same,Percent survival,"[1]; wood slices 500 mg/l, Day 10, Soldier",4.17 ± 2.38 b %
same,Percent survival,"[1]; wood slices 500 mg/l, Day 10, Worker",30.67 ± 9.18 a %
same,Percent survival,"[1]; wood slices 1000 mg/l, Day 1, Soldier",84.17 ± 7.24 a %
same,Percent survival,"[1]; wood slices 1000 mg/l, Day 1, Worker",86.67 ± 3.53 a %
same,Percent survival,"[1]; wood slices 1000 mg/l, Day 5, Soldier",2.50 ± 2.49 b %
same,Percent survival,"[1]; wood slices 1000 mg/l, Day 5, Worker",13.0 ± 9.85 b %
same,Percent survival,"[1]; wood slices 1000 mg/l, Day 10, Soldier",0.0 ± 0.0 b %
same,Percent survival,"[1]; wood slices 1000 mg/l, Day 10, Worker",5.67 ± 4.27 b %
same,longevity,[2],highest longevity
same,volatility,[2],lowest volatility
same,Survival (mean % ± SE) day 12,C. formosanus workers [3]; 4.16 mg/kg,48.75 ± 2.78 ab %
same,Survival (mean % ± SE) day 12,C. formosanus workers [3]; 8.33 mg/kg,36.00 ± 4.76 bc %
same,Survival (% ± SE) day 12,C. formosanus workers [3]; 8.75 mg/kg,61.60 ± 2.79 abc %
same,Survival (mean % ± SE) day 12,C. formosanus workers [3]; 16.67 mg/kg,35.25 ± 3.47 bc %
same,Survival (% ± SE) day 12,C. formosanus workers [3]; 17.5 mg/kg,67.20 ± 1.36 ab %
same,Survival (mean % ± SE) day 12,C. formosanus workers [3]; 33.33 mg/kg,17.33 ± 7.22 c %
same,Survival (% ± SE) day 12,C. formosanus workers [3]; 35.0 mg/kg,59.0 ± 7.72 bc %
same,Survival (mean % ± SE) day 12,C. formosanus workers [3]; 66.67 mg/kg,24.25 ± 11.99 c %
same,Survival (% ± SE) day 12,C. formosanus workers [3]; 70.0 mg/kg,53.0 ± 2.34 c %
same,Survival (% ± SE) day 12,C. formosanus workers [3]; 140.0 mg/kg,51.60 ± 3.97 c %
same,concentration with significantly reduced survival after 12 days,C. formosanus workers [3]; colony E,≥ 35.0 mg/kg sand
same,concentration significantly reducing overall tunneling (treated plus untreated sand),"C. formosanus workers [3]; colony E, 12 days",≥ 35.0 mg/kg
same,concentration with significant reduction in consumption of filter paper on treated sand,"C. formosanus workers [3]; colony E, 12 days",≥ 8.75 mg/kg
same,concentration with significantly less total food consumption,"C. formosanus workers [3]; colony E, only this treatment",140 mg/kg
same,concentration with significant reduction in tunneling activity in treated sand,"C. formosanus workers [3]; colony E, up to 12 days",≥ 17.5 mg/kg
same,concentration with significantly reduced survival on day 12,C. formosanus workers [3]; colony WB,≥ 8.33 mg/kg
same,concentration with significantly reduced consumption of wood slices on treated sand,"C. formosanus workers [3]; colony WB, 12 days",≥ 8.33 mg/kg
same,concentration with significant difference in tunneling activity between untreated and treated sand,"C. formosanus workers [3]; colony WB, days 2, 3, 4, 7",≥ 16.67 mg/kg sand
same,feeding activity after 8 days exposure,C. formosanus workers [4],negligible
same,worker distribution,C. formosanus workers [4],workers avoided the treated side
